biological target: T1, Prostaglandin E synthase (Homo sapiens, UniProt O14684); assay: Inhibition of mPGES-1 in interleukin-1beta-stimulated human A549 cells microsomal membranes assessed as reduction in PGE2 formation incubated for 15 mins in presence of PGH2 and glutathione by RP-HPLC method; format: cell-based
T1 sequence (O14684 whole entry): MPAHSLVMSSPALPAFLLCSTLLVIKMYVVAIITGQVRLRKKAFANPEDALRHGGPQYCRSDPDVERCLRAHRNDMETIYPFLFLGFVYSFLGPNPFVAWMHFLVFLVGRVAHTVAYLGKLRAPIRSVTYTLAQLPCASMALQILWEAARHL

Q: Which IC50 does the source give for `CC1=C(C(=O)c2cc(Br)ccc2O)C(c2ccc(-c3cccc(C(F)(F)F)c3)o2)NC(=O)N1` (stereo not drawn) here?
A: The IC50 was 5600 nM.

Q: With `CC1=C(C(=O)OCc2ccccc2)C(c2ccc(-c3cccc(C(F)(F)F)c3)o2)NC(=O)N1` (stereo not drawn) as the molecule, how does the IC50 read?
A: The IC50 was 1400 nM.

Q: Which IC50 does the source give for `CC1=C(C(=O)OCc2ccccc2)C(c2ccc(-c3cccc(C(F)(F)F)c3)o2)NC(=O)N1CCC(=O)O` (stereo not drawn) here?
A: The IC50 was 410 nM.

Reference: ChEMBL document CHEMBL3393013, “Structural Insights for the Optimization of Dihydropyrimidin-2(1H)-one Based mPGES-1 Inhibitors” (ACS Med Chem Lett, 2015)
